In publication PMC8395335, “Serotonergic–Muscarinic Interaction within the Prefrontal Cortex as a Novel Target to Reverse Schizophrenia-Related Cognitive Symptoms” (International Journal of Molecular Sciences, 2021):

Columns and labels:
MK-801-treated mice [1] = test: Y-maze test (spontaneous alternations), MK-801-induced deficits; type: in vivo
Protocol: (§1) Drugs were administered on two different schedules: (1) acute administration of compounds 45 min (WAY100635—5-HT1A antagonist) or 30 min (VU0357017, VU152100, VU0238429, and F15599) before MK-801 (also administered once 30 min before the test in Y-maze or T1 in NOR test); and (2) prolonged administration (once per day for 7 consecutive days) of the compounds and MK-801 with the last administration 24 h before the test (NOR test) or at the day of the test (Y-maze). […] Schedules of administration are presented graphically in Figure 2. The subeffective doses of the compounds for acute administration in the NOR test were chosen based on our previous research (see: [22, 23]) while dose-dependent studies of the activity of the compounds in reversing disruptions in the Y-maze or after prolonged administration along with MK-801 were performed within this study. Different vehicles were used throughout the study: (1) 0.9% NaCl and (2) 10% Tween 80. Vehicles were administered to all animals (e.g., control mice and MK-801-treated mice) on the same schedule as drugs were administered to the appropriate drug-treated groups of mice. Neither solvent exerted effects on animal behavior.
(§2) Male Albino Swiss mice (Charles River, Sulzfeld, Germany) weighing 20–25 g at the beginning of the experiments were used in the studies. The animals were housed in a room with a 12:12 h light-dark cycle at a temperature of 22 ± 1 °C with food and water available ad libitum. The experimental groups consisted of 8–10 animals. All drugs were administered intraperitoneally (i.p.) at a volume of 10 mL/kg. The behavioral experiments were performed by an observer who was blinded to the treatment. The procedures were conducted in accordance with the European Communities Council Directive of 22 September 2010 (2010/63/EU) and Polish legislation acts concerning animal experimentation and were approved by the II Local Ethics Committee by the Maj Institute of Pharmacology, Polish Academy of Sciences in Krakow (15/2020, 240/2020).
(§3) In acute experiments, the tested compounds (alone or in combination) were administered 30 min before MK-801 (0.3 mg/kg), which was administered 30 min before the test or training trial (T1) in the NOR test. In chronic experiments, the tested compounds (alone or in combination) and MK-801 were administered for seven days. Behavioral tests were performed on the eighth day.
The Y-maze was performed using the methods described by Miedel et al. and Kraeuter et al. with minor modifications. A black, wooden Y-shaped apparatus with equal length arms (labeled A, B, or C) spaced 120 apart was used in the behavioral experiment. Visual clues were placed inside the maze and mounted to the back wall of each arm. The experiment was performed in a well-lit room. The mice were placed in the same starting arm and were allowed to freely explore the maze for 8 min. After each trial, the maze was wiped clean. The sequence and the number of arm entries were recorded to calculate the percentage of spontaneous alternations using the following formula: [(Number of alternations)/(Total arm entries − 2)] × 100. An arm entry was scored if the animal entered the arm with all paws. Consecutive entries into three distinct arms were scored as an alternation (e.g., ACB, but not ACA) in which sequences could overlap (e.g., ACBACABAC represents […] alternations).

MK-801-treated mice [2] = test: Novel object recognition (NOR) test, MK-801-induced deficits; type: in vivo
Protocol: as §1, §2, §3
The NOR test was performed as described previously. Briefly, the habituation, training and test trial were carried out in a dark room in a black, plastic rectangular arena illuminated with a 355 lux bulb. During the habituation trial, the animals were allowed to explore the arena in the absence of objects (10 min/day for 2 days). The next day, the training (T1) and test (T2) trials were performed. Throughout T1, mice were allowed to freely explore two identical objects (5 min), one of which was subsequently replaced by a novel object in T2 (1 h later, 5 min of exploration). Time spent exploring (i.e., sniffing or touching) the familiar (Tfamiliar) or novel object (Tnovel) was measured by a trained observer, and then the recognition index was calculated for each mouse [(Tnovel − Tfamiliar)/(Tfamiliar + Tnovel)] × 100.

[3] = Pharmacokinetic analysis of drug-drug interactions (plasma, FC concentration, FC penetration); type: in vivo, mice; conditions: Albino Swiss, mouse, in vivo, 30 min
Protocol: The experiment was performed using the methods described by Bridges et al. and in our previous studies.
The pharmacokinetic analysis was performed in the blood and prefrontal cortex. […] Plasma and FC samples were stored at −80 °C until analysis.
The investigated compounds were administered alone at the top dose (F15599—0.1 mg/kg, VU0357017—5 mg/kg, VU0152100—1 mg/kg, and VU0238429—5 mg/kg) and in combinations of muscarinic ligands at subeffective doses with F15599 at subeffective dose (F15599 + VU0357017 0.05 and 0.15 mg/kg, F15599 + VU0152100 0.05 and 0.05 mg/kg, F15599 + VU0238429 0.05 and 1 mg/kg). The FC and blood were collected on the eighth day, 30 min after administration. All mice were parallelly treated with MK-801 (0.3 mg/kg) for seven consecutive days.
On the day of analysis, frozen whole mouse brain tissues were weighed and homogenized in 1:2 (w/v) volumes of ice-cold acetonitrile containing 0.1% FA and the internal standard mix. Samples were homogenized using a Metal Bead Lysing Matrix, vortexed for 1 min, shaken for 20 min at 4 °C on Thermomixer C, and centrifuged at 14,000× g rpm for 20 min at 4 °C. Finally, 50 µL of supernatant were diluted with 0.1% FA in water (1:1, v/v) and analyzed using HPLC/MS/MS.
The sample extraction of plasma (20 μL) was performed after spiking with the internal standard mix using the protein precipitation method and three volumes of ice-cold acetonitrile containing 0.1% formic acid. The extract was vortexed, incubated on ice for 20 min and centrifuged at 14,000× g rpm for 20 min at 4 °C. The supernatant was diluted with 0.1% FA in water (1:1, v/v) and analyzed by means of HPLC/MS/MS using a QTRAP 4500 (AB Sciex) mass spectrometer in positive ion mode in Multiple Reaction Monitoring (MRM screening) coupled with UHPLC (NEXERA XR, Shimadzu). Chromatographic separation was achieved on a Synergi 4 µm Fusion-RP 80 A 50 × 2 mm (Phenomenex) column at a flow rate of 0.2 mL/min. The gradient program was as follows: 20% B (0.3 min), 20–100% B (1.7 min), 100% B (3 min), 100–20% B (0.1 min), 20% B (2 min), solvent A (95:5:0.1% formic acid in water:methanol) and solvent B (methanol containing 0.1% formic acid). The column temperature was set to 40 °C. Analyst software was used to control the instrument and collect data. The ion transfer tube temperature was 300 °C. The spray voltage, collision energy, declastering potential, and gas parameters were optimized to achieve the maximal response using the test compounds. Selected reaction monitoring was carried out using the transition parameters. Calibration curves were constructed, and a linear response was obtained in the range of 0.25–500 ng/mL (VU357017, VU0152100, and F15599) and 1.25–2500 ng/mL (VU0238429) by spiking known amounts of each compound in blank brain homogenates and plasma. For VU0357017 and F15599 IS VU0152100 was used as internal standard. Sample concentration of internal standard was 100 ng/mL for IS VU0238429 and 50 ng/mL for IS VU0152100.
Brain penetration was calculated as FC/plasma ratio × 100%.

C[C@]12N[C@H](Cc3ccccc31)c1ccccc12 [MK-801]
Disruption of spontaneous alternations in the Y-maze (MK-801-treated mice [1]; acute MK-801 (0.3 mg/kg) 30 min before test): induced typical disruption | Disruptive effect on animals' behavior in Y-maze (MK-801-treated mice [1]; prolonged MK-801, test performed 24 h after the last administration): lack of MK-801 disruptive effect | Disruption in the recognition index (NOR) (MK-801-treated mice [2]; acute MK-801 (0.3 mg/kg) 30 min before T1): induced typical disruption | Disruption in the recognition index (NOR) (MK-801-treated mice [2]; seven days of MK-801 administration): induced a typical disruption

COc1ccc(CNC(=O)c2sc3nc(C)cc(C)c3c2N)cc1 [VU0152100]
Increase of FC penetration after prolonged administration compared to acute [3]: ca. 50% | Increase of FC penetration when administered concomitantly with F15599 [3]: more than 50% | Reversal of MK-801-induced disruptions in Y-maze by combined administration (MK-801-treated mice [1]; 7 days, F15599 0.025 mg/kg with VU0152100 0.05 mg/kg (subeffective doses)): did not reverse | Reversal of MK-801-induced reduction in spontaneous alternations in the Y-maze (MK-801-treated mice [1]; acute, 0.1-5 mg/kg i.p.): No efficacy | Effect of combined administration on spontaneous alternations in the Y-maze test (MK-801-treated mice [1]; acute, F15599 0.1 mg/kg with VU0152100 1 mg/kg, MK-801-treated): no effect | Reversal of MK-801-induced deficits in the NOR test (recognition index) (MK-801-treated mice [2]; 7 days with MK-801, 0.1 mg/kg i.p.): activity of VU0152100 was observed | Reversal of MK-801-induced deficits in the NOR test (recognition index) (MK-801-treated mice [2]; 7 days with MK-801, 1 mg/kg): activity of VU0152100 was observed | Reversal of MK-801-induced deficits in the NOR test (recognition index) (MK-801-treated mice [2]; 7 days with MK-801, dose of 0.05): ineffective | Reversal of MK-801-induced disruptions in NOR test by combined administration (MK-801-treated mice [2]; 7 days, F15599 0.05 mg/kg with VU0152100 0.05 mg/kg (subeffective doses)): reversed | Effect of top dose on MK-801-induced deficits in the NOR test (MK-801-treated mice [2]; acute, 1 mg/kg i.p., alone): pro-cognitive effect | Effect of combined administration on MK-801-induced memory deficits in the NOR test (MK-801-treated mice [2]; acute, subeffective doses, F15599 with VU0152100): no effect

COc1ccccc1N1CCN(CCN(C(=O)C2CCCCC2)c2ccccn2)CC1 [WAY100635]
Effect of WAY100635 on the pro-cognitive effect of muscarinic ligand in the NOR test (MK-801-treated mice [2]; acute, WAY100635 0.1 mg/kg 15 min before VU0152100 (1 mg/kg)): reversed the pro-cognitive effect | Effect of WAY100635 on the pro-cognitive effect of muscarinic ligand in the NOR test (MK-801-treated mice [2]; acute, WAY100635 0.1 mg/kg 15 min before VU0238429 (5 mg/kg)): reversed the pro-cognitive effect | Effect of WAY100635 on the pro-cognitive effect of muscarinic ligand in the NOR test (MK-801-treated mice [2]; acute, WAY100635 0.1 mg/kg 15 min before VU0357017 (5 mg/kg)): reversed the pro-cognitive effect
